The values below come from patent publication US20250319047A1, “ANTIMICROBIAL TREATMENT AND PREVENTION BY PERILLYL ALCOHOL AND DERIVATIVES” (priority 2024, published 2025).

The conditions of data set [1]: acids formed by oxidation of POH/PCO; cited from earlier work.
The conditions of data set [2]: in vivo. An excerpt:
(§1) The antimicrobial effectiveness of POH diminishes in more dilute solutions. […] However, POH at concentrations equal to and higher than 4% will cause skin irritation and thus are not practical for clinical applications. Therefore, the highest concentration proposed is 3% to maintain a practical clinical range.

The subject of another data set is all microorganisms. The experiment in a line: Challenge of antimicrobial effectiveness of POH by concentration. The class given is cell-based.
Source text: as §1

The conditions of data set [3]: rats, prior systemic studies; cited from earlier work.
For data set [4] the following is noted: humans, dogs, and rats; cited from earlier work.

In the case of `C=C(C)[C@@H]1CC=C(C(=O)O)CC1` [Perillic], the antimicrobial activity entry in data set [1] is recorded as “lose the antimicrobial activity”.
As to `C=C(C)[C@@H]1CC=C(CO)CC1` [Perillyl alcohol, perillyl alcohol], the “concentration that will cause skin irritation” value in data set [2] is on record as no less than 4%. Moreover, the results for the antimicrobial effectiveness result in the data set with all microorganisms (0.1% concentration) and in the data set on all microorganisms (over 90% concentrations) were “reasonable against all microorganisms” and “eradicating the microorganisms completely”, respectively. In data set [3], the “metabolization, detection of parent compound” value is “not detected”. In addition, the metabolization entry in data set [4] was “rapidly metabolized”.
In the case of `C=C(C)C1CCC(C(=O)O)CC1` (stereo not shown) [Dihydroperillic], the antimicrobial activity entry in data set [1] is reported as “lose the antimicrobial activity”.
